The source of these data is paper PMC9867442, “Indole Derivatives Bearing Imidazole, Benzothiazole-2-Thione or Benzoxazole-2-Thione Moieties—Synthesis, Structure and Evaluation of Their Cytoprotective, Antioxidant, Antibacterial and Fungicidal Activities” (Molecules, 2023).

Data set [1] deals with Pseudomonas fluorescens. Briefly: Antibacterial well-diffusion method. The format is cell-based. To be noted: 0.1 mL of compound in DMSO, 48 h, 27 °C. Here is the method:
(§1) The antimicrobial properties of compounds were determined against selected bacteria: Micrococcus luteus, Bacillus subtilis, Escherichia coli and Pseudomonas fluorescens which came from the collection of Pure Cultures of the Facility of Microbiology of the Department of Soil Science and Microbiology of the Poznan University of Life Sciences. The well-diffusion method was used to evaluate the antimicrobial properties of compounds. 6 mL each of liquidized broth medium was poured into sterile Petri dishes and allowed to solidify. After which, two sterile glass rings with a diameter of 0.5 cm were placed on the surface of each plate. Then 20 mL each of liquid broth medium containing suspensions of the tested bacterial strains at a density of 10^7 cells/cm3, obtained from 48-h cultures on broth […], was introduced. After the medium solidified, the glass rings were removed with a pencil, obtaining two wells on each plate. 0.1 mL of compound dissolved in pure dimethyl sulphoxide was introduced into one well, and 0.1 mL of pure dimethyl sulphoxide was introduced into the other well, which was as a control. Each compound was tested in four replicates. The plates were incubated for 48 h in a thermostat at 27 °C for M. luteus, B. subtilis and P. fluorescens cultures, and the E. coli culture at 37 °C. At the end of the incubation, the diameters of growth inhibition of the tested strains were measured using calipers.
A general note: Agar diffusion results depend on both activity and mobility in agar.

Data set [2] deals with Bacillus subtilis. The data set can be described thus: Antibacterial well-diffusion method. The format is cell-based. To be noted: 0.1 mL of compound in DMSO, 48 h, 27 °C. Here is the method: as §1
Data set [3] has as its system Micrococcus luteus. The data set can be described thus: Antibacterial well-diffusion method. To be noted: Micrococus luteus, 0.1 mL of compound in DMSO, 48 h, 27 °C. The format is cell-based. Here is the method:
as §1

The test system of data set [4] is Escherichia coli. Briefly: Antibacterial well-diffusion method. The class given is cell-based. To be noted: 0.1 mL of compound in DMSO, 48 h, 37 °C. As for the experimental part:
as §1

For data set [5], the system named is Poria placenta (Pp). The data set can be described thus: Antifungal agar-plate method. The format is cell-based. The note with it: read-out: Antifungal activity (inhibition of mycelial growth); for inhibition of growth at 0.0001 %: concentration 0.0001%; for inhibition of growth at 0.001 %: concentration 0.001%; for inhibition of growth at 0.01 %: concentration 0.01%; for inhibition of growth at 0.1 %: concentration 0.1%. As for the experimental part: (§2) Fungal strains: Coriolus versicolor (Cv), Poria placenta (Pp), Coniophora puteana (Cp) and Gloeophyllum trabeum (Gt) were used as a test organism for the experimental determination of the antifungal activity of 1–11. The fungus were obtained from the collection of the Department of Wood Chemical Technology, Faculty of Forestry and Wood Technology, Poznań, University of Life Sciences, Poland. The fungal growth rates were measured in 90 mm-diameter plastic dishes using the agar-plate method, described by Ważny and Thorton. Five concentrations of gramine and its derivatives in the range of 0.1% to 0.00001% were studied. The compound was applied on the agar (2% agar and 5% malt-extract) prepared on the Petri dish and previously autoclaved. The combination of the compound and fungus was repeated three times. Given sample was centrally inoculated with a 5 mm diameter disc taken from the submargin of 5-day-old malt agar plates. The plates were incubated in darkness at 21 ± 2 °C and 70 ± 5% relative air humidity. The growth duration was determined by the total coverage of the reference plate. The radius of the area covered by the fungus compared with the reference agar plate was employed to calculate the effective doses, ED50, of preservative concentrations retarding the fungal growth rate by 50%.

The test system of data set [6] is Coniophora puteana (Cp). Briefly: Antifungal agar-plate method. The class given is cell-based. The note with it: Coniophora puteana, read-out: Antifungal activity (inhibition of mycelial growth); for inhibition of growth at 0.0001 %: concentration 0.0001%; for inhibition of growth at 0.001 %: concentration 0.001%; for inhibition of growth at 0.01 %: concentration 0.01%; for inhibition of growth at 0.1 %: concentration 0.1%. As for the experimental part: as §2

Data set [7] concerns Coriolus versicolor (Cv). Briefly: Antifungal agar-plate method. To be noted: Trametes versicolor, read-out: Antifungal activity (inhibition of mycelial growth); for inhibition of growth at 0.0001 %: concentration 0.0001%; for inhibition of growth at 0.001 %: concentration 0.001%; for inhibition of growth at 0.01 %: concentration 0.01%; for inhibition of growth at 0.1 %: concentration 0.1%. The class given is cell-based. As for the experimental part: as §2

Data set [8] has as its system Gloeophyllum trabeum (Gt). Briefly: Antifungal agar-plate method. The format is cell-based. To be noted: Gloeophyllum trabeum, read-out: Antifungal activity (inhibition of mycelial growth); for inhibition of growth at 0.0001 %: concentration 0.0001%; for inhibition of growth at 0.001 %: concentration 0.001%; for inhibition of growth at 0.01 %: concentration 0.01%; for inhibition of growth at 0.1 %: concentration 0.1%. Here is the method:
as §2

As to `CN(C)Cc1c[nH]c2ccccc12` [Compound 1, gramine, reference compound], the “Zone of Growth Inhibition” value in data set [1] came out at 13 mm; in data set [2], 0 mm; in [3], 0 mm; in data set [4], 0 mm. Moreover, the inhibition of growth (usually the relative decrease from the control value, in per cent) at 0.0001 % in data set [5] amounted to 14%; in [6], 41%; in data set [7] it was 18%; in data set [8], 12%. Moreover, the inhibition of growth at 0.001 % in [5] amounted to 25%; in [6], 40%; in data set [7], 22%; in data set [8] it was 12%. For the same molecule, the inhibition of growth at 0.01 % stood at 40% in [5], 51% in data set [6], 35% in [7] and 17% in [8]. Further, the inhibition of growth at 0.1 % in data set [5], in [6], in data set [7] and in data set [8] was 100% in each case.
Consider `c1ccc2c(Cn3ccnc3)c[nH]c2c1` [Compound 2], for which the “Zone of Growth Inhibition” value in data set [1] is recorded as 14.7 mm; in data set [2], 3.3 mm; in data set [3] it was 21 mm; in data set [4] it was 4 mm. Besides, the inhibition of growth at 0.0001 % in data set [5] turned out to be 0%; in data set [6], 0%; in data set [7], 0%; in data set [8], 20%. Besides, the inhibition of growth at 0.001 % in data set [5] is 20%; in data set [6], 0%; in data set [7], 19%; in [8], 20%. Further, the inhibition of growth at 0.01 % was 47% in data set [5], 41% in data set [6], 33% in [7] and 40% in [8]. The inhibition of growth at 0.1 % in data set [5], in [6], in [7] and in data set [8] was 100% each time.
Regarding `CCc1nccn1Cc1c[nH]c2ccccc12` [Compound 4, 3-((2-ethyl-1H-imidazol-1-yl)methyl)-1H-indole], the melting point (as a rule, the temperature of the solid-liquid transition) lay in the range of 183 to 186 °C. Moreover, the “Zone of Growth Inhibition” value in data set [1] was found to be 3 mm. Besides, the “Zone of Growth Inhibition” value in data set [2] amounted to 4.3 mm. Besides, the “Zone of Growth Inhibition” value in data set [3] amounted to 8.8 mm. Also, the “Zone of Growth Inhibition” value in [4] was found to be 3.8 mm. For the same molecule, in [5], the inhibition of growth at 0.0001 % was determined as 16%, the inhibition of growth at 0.001 % is 18%, the inhibition of growth at 0.01 % came to 32% and the inhibition of growth at 0.1 % was 100%. In addition, in [6], the inhibition of growth at 0.0001 % was 13%, the inhibition of growth at 0.001 % amounted to 15%, the inhibition of growth at 0.01 % stood at 37% and the inhibition of growth at 0.1 % is 100%. Besides, in [7], the inhibition of growth at 0.0001 % came to 6%, the inhibition of growth at 0.001 % amounted to 13%, the inhibition of growth at 0.01 % was 43% and the inhibition of growth at 0.1 % came to 100%. In addition, in data set [8], the inhibition of growth at 0.0001 % was 8%, the inhibition of growth at 0.001 % worked out at 11%, the inhibition of growth at 0.01 % stood at 30% and the inhibition of growth at 0.1 % turned out to be 100%.
In turn, `CC(C)c1nccn1Cc1c[nH]c2ccccc12` [Compound 5, 3-((2-isopropyl-1H-imidazol-1-yl)methyl)-1H-indole] gave a melting point of 183 to 185 °C. In addition, in data set [1], the “Zone of Growth Inhibition” value was 0 mm. The “Zone of Growth Inhibition” value in data set [2] came to 1.8 mm. The “Zone of Growth Inhibition” value in data set [3] is on record as 3 mm. The “Zone of Growth Inhibition” value in data set [4] was 3 mm. Further, in data set [5], the inhibition of growth at 0.0001 % came to 1%, the inhibition of growth at 0.001 % is 6%, the inhibition of growth at 0.01 % is 21% and the inhibition of growth at 0.1 % turned out to be 100%. In data set [6], the inhibition of growth at 0.0001 % worked out at 13%, the inhibition of growth at 0.001 % came to 14%, the inhibition of growth at 0.01 % worked out at 26% and the inhibition of growth at 0.1 % was 100%. Besides, in data set [7], the inhibition of growth at 0.0001 % was found to be 13%, the inhibition of growth at 0.001 % came out at 12%, the inhibition of growth at 0.01 % turned out to be 43% and the inhibition of growth at 0.1 % is 100%. In data set [8], the inhibition of growth at 0.0001 % came out at 12%, the inhibition of growth at 0.001 % was 16%, the inhibition of growth at 0.01 % is 17% and the inhibition of growth at 0.1 % worked out at 100%.
For the molecule `CCc1nc(C)cn1Cc1c[nH]c2ccccc12` [Compound 6, 3-((2-ethyl-4-methyl-1H-imidazol-1-yl)methyl)-1H-indole], the melting point lay within 186 to 189 °C. Moreover, in [1], the “Zone of Growth Inhibition” value is recorded as 2.3 mm. Besides, the “Zone of Growth Inhibition” value in data set [2] worked out at 2.4 mm. Also, the “Zone of Growth Inhibition” value in [3] turned out to be 6 mm. Also, the “Zone of Growth Inhibition” value in data set [4] was 3.5 mm. In data set [5], the inhibition of growth at 0.0001 % is 4%, the inhibition of growth at 0.001 % amounted to 0%, the inhibition of growth at 0.01 % was 41% and the inhibition of growth at 0.1 % stood at 100%. Also, in data set [6], the inhibition of growth at 0.0001 % is 40%, the inhibition of growth at 0.001 % came out at 37%, the inhibition of growth at 0.01 % amounted to 49% and the inhibition of growth at 0.1 % is 100%. In [7], the inhibition of growth at 0.0001 % was found to be 19%, the inhibition of growth at 0.001 % came to 19%, the inhibition of growth at 0.01 % came to 44% and the inhibition of growth at 0.1 % stood at 100%. Besides, in data set [8], the inhibition of growth at 0.0001 % came out at 13%, the inhibition of growth at 0.001 % is 9%, the inhibition of growth at 0.01 % came out at 27% and the inhibition of growth at 0.1 % came to 100%.
